Test system: SHRs (Spontaneously Hypertensive Rats)
Assay: Systolic blood pressure of spontaneously hypertensive rats by Tail-Cuff method after administration in drinking water
Format: in vivo, rat
From the text: In this case, losartan (an angiotensin-receptor antagonist), enalapril (an angiotensin-converting enzyme inhibitor), amlodipine (a calcium channel blocker), and diltiazem (a calcium channel blocker) were used as representative examples of the antihypertensive agent (b). Twelve-week-old male SHRs (Spontaneously Hypertensive Rats) were used for experiment after subjecting them to quarantine for 1 week or more. At 15 or 16 weeks old, the SHRs were trained for blood pressure measurement with a Tail-Cuff method sphygmomanometer (BP-2000, Visitech systems, Napa Place, N.C., USA) for 1 to 2 weeks. After completing the training, they underwent blood pressure measurement at 17 to 18 weeks old. The animals were divided into 4 groups (10 for each) by taking care not to cause a bias in the systolic blood pressure, and the drug administration was started. Tap water was administered to a first group as a control group. A solution of each test material dissolved in tap water was administered to second to fourth groups. That is, febuxostat was administered to the second group, each antihypertensive agent of losartan, enalapril, amlodipine or diltiazem to the third group, and the mixture of febuxostat and the antihypertensive agents administered to the third group as combined administration to the fourth group. The dose of each agent was calculated from the concentration in the solution, the amount of drinking water, and the weight of the rats. After administration was carried out for 2 to 6 weeks, the value of their systolic blood pressure were measured by Tail-Cuff method.

[1] = male SHR, before administration (baseline of the group), Table 3 study, each agent 3 mg/kg/day
[2] = male SHR, 42nd day after administration, each agent 3 mg/kg/day in tap water, alone or combined, Table 2 study (tap water group 226 ± 4)
[3] = male SHR, before administration (baseline of the group), Table 2 study, each agent 3 mg/kg/day
[4] = male SHR, 14th day after administration, each agent 3 mg/kg/day in tap water, alone or combined, Table 1 study (tap water group 233 ± 4)
[5] = male SHR, before administration (baseline of the group), Table 1 study, each agent 3 mg/kg/day

| Compound | systolic blood pressure (mean value±standard error) [1] | systolic blood pressure (mean value±standard error) [2] | systolic blood pressure (mean value±standard error) [3] | systolic blood pressure (mean value±standard error) [4] | systolic blood pressure (mean value±standard error) [5] | further results |
| --- | --- | --- | --- | --- | --- | --- |
| CCOC(=O)C1=C(COCCN)NC(C)=C(C(=O)OC)C1c1ccccc1Cl (centres unmarked) [amlodipine] | 228 ± 3 mmHg |  |  |  |  | systolic blood pressure (mean value±standard error) (rat, in vivo): 219 ± 3 mmHg |
| COc1ccc([C@@H]2Sc3ccccc3N(CCN(C)C)C(=O)[C@@H]2OC(C)=O)cc1 [diltiazem] |  |  |  |  |  | systolic blood pressure (mean value±standard error) (male SHR, 42nd day after administration, diltiazem 100 mg/kg/day in tap water, Table 4 study (tap water group 233 ± 3)): 231 ± 4 mmHg; systolic blood pressure (mean value±standard error) (male SHR, before administration (baseline of the group), Table 4 study, diltiazem 100 mg/kg/day): 229 ± 4 mmHg |
| CCOC(=O)[C@H](CCc1ccccc1)N[C@@H](C)C(=O)N1CCC[C@H]1C(=O)O [enalapril] |  | 220 ± 5 mmHg | 232 ± 5 mmHg |  |  |  |
| Cc1nc(-c2ccc(OCC(C)C)c(C#N)c2)sc1C(=O)O [febuxostat, 2-(3-cyano-4-isobutyloxyphenyl)-4-methyl-5-thiazolecarboxylic acid] | 228 ± 4 mmHg | 213 ± 5 mmHg | 230 ± 3 mmHg | 219 ± 4 mmHg | 230 ± 4 mmHg | systolic blood pressure (mean value±standard error) (male SHR, 14th day after administration, each agent 3 mg/kg/day in tap water, alone or combined, Table 3 study (tap water group 229 ± 3)): 215 ± 4 mmHg; systolic blood pressure (mean value±standard error) (male SHR, 42nd day after administration, febuxostat 3 mg/kg/day in tap water, Table 4 study (tap water group 233 ± 3)): 227 ± 4 mmHg; antihypertensive action (result in words) (male SHR, administration for 2 to 6 weeks in drinking water): antihypertensive action; systolic blood pressure (mean value±standard error) (male SHR, before administration (baseline of the group), Table 4 study, febuxostat 3 mg/kg/day): 230 ± 5 mmHg |
| CCCCc1nc(Cl)c(CO)n1Cc1ccc(-c2ccccc2-c2nn[nH]n2)cc1 [losartan] |  |  |  | 215 ± 2 mmHg | 232 ± 4 mmHg |  |

— patent US9545445B2, “Therapeutic drug for hypertension or prehypertension” (Teijin Pharma Limited, priority 2009, dated 2017)
